Measured values published in the supplement of paper PMC11208160.

Assay: recombinant UMI read abundance after kanamycin selection (control-corrected) (log10(CPM+1)); higher = more efficient recombination; extreme values may be limits of the assay; sequences stand for … in AGTGCAGAGAAAATCGGCCAGTTTTCTCTGCCTGCAGTCCGCATGCCGTGGGACCCCTTGGGTTCTAACCTGTTGCCTAGATTTATGCAGCGGACTGCCTTTCTCCCAAAGTGATAAACCGG…AGGTTGGTTTCACT; site = the 11-nt donor
Procedure, shortened: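 After plating on IPTG (0.07 mM) plus kanamycin, or unselected, in two replicates, recombinant UMIs were PCR-amplified across the donor–target junction and sequenced. The cells were Escherichia coli co-electroporated with a UMI-tagged donor and donor-binding-loop pair library and a target plasmid with a fixed target and T7-inducible IS621 bridge recombinase. Values are log10(CPM+1), with CPM averaged over replicates and scaled by control-derived factors.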
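Further: IS621 bridge recombinase in Escherichia coli cells against a fixed T5 target plasmid.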

Point of comparison: “GCGAAAACATGGACCGGTTTTCCCGGTAATCCGTATTTGTT (site GCGAAAACTAG)”, “recombinant UMI read abundance (log10)” value 1.18. Against it:
- ATGTGGGCATGGACCGGTTTTCCCGGTAATCCGTATTTGGC (site ATGTCGGCTGC) — lower, 0
- ACAGTATCATGGACCGGTTTTCCCGGTAATCCGTATTTGCA (site ACACTATCTTA) — lower, 0
- GTTCGACCATGGACCGGTTTTCCCGGTAATCCGTATTTGTG (site GTTCGACCTCA) — lower, 0.0309
- AGCCCAGCATGGACCGGTTTTCCCGGTAATCCGTATTTGTT (site AGCCGAGCTAA) — lower, 0.0227
- GGCGACCCATGGACCGGTTTTCCCGGTAATCCGTATTTGTT (site GGCCACCCTAA) — lower, 0.0153
- GGTGTGGCATGGACCGGTTTTCCCGGTAATCCGTATTTGGT (site GGAGTGGCTAC) — lower, 0.128
- CCTAATTCATGGACCGGTTTTCCCGGTAATCCGTATTTGGC (site CCTAATACTGC) — lower, 0
- GTGATGGCATGGACCGGTTTTCCCGGTAATCCGTATTTGAT (site GTGATGGCTAT) — higher, 2.31
- GTTCGAGCATGGACCGGTTTTCCCGGTAATCCGTATTTGCC (site GTTCGAGCTTG) — lower, 0.317
- TCAGAGTCATGGACCGGTTTTCCCGGTAATCCGTATTTGCG (site TCAGAGCCTCG) — lower, 0.625
- AATGTGTCATGGACCGGTTTTCCCGGTAATCCGTATTTGAC (site AAGGTGTCTGT) — within 0.2 log units, 1.02
- AAGAACACATGGACCGGTTTTCCCGGTAATCCGTATTTGAT (site AAGAACACTAT) — higher, 2.22
- AAATGCACATGGACCGGTTTTCCCGGTAATCCGTATTTGGG (site AAATGCACTCC) — lower, 0.0107
- AATTTATCATGGACCGGTTTTCCCGGTAATCCGTATTTGTT (site AATTTATCTAA) — lower, 0.558
- CCCGGTGCATGGACCGGTTTTCCCGGTAATCCGTATTTGAT (site CCCGGTGCTAT) — lower, 0.907
- TACTTGGCATGGACCGGTTTTCCCGGTAATCCGTATTTGGA (site CACTTGGCTTC) — lower, 0.00371
- CGATTGACATGGACCGGTTTTCCCGGTAATCCGTATTTGTT (site CGATCGACTAA) — lower, 0.016
- TAATGAGCATGGACCGGTTTTCCCGGTAATCCGTATTTGGC (site TAATGAGCTCC) — lower, 0.0259
- GAGGCACCATGGACCGGTTTTCCCGGTAATCCGTATTTGCA (site GTGGCACCTTG) — lower, 0
- CTCTACACATGGACCGGTTTTCCCGGTAATCCGTATTTGCC (site CTCTACACTGG) — higher, 2.37
- GTAGCTGCATGGACCGGTTTTCCCGGTAATCCGTATTTGTG (site CTAGCTGCTCA) — lower, 0.54
- TCGATTACATGGACCGGTTTTCCCGGTAATCCGTATTTGGA (site TCGATTACTTC) — lower, 0.277
- GTAGTCGCATGGACCGGTTTTCCCGGTAATCCGTATTTGCG (site GTATTCGCTCG) — lower, 0.011
- AGGCATACATGGACCGGTTTTCCCGGTAATCCGTATTTGCA (site AGGAAGACTTG) — lower, 0
- CATGTCACATGGACCGGTTTTCCCGGTAATCCGTATTTGGG (site CAAGTCACTCC) — lower, 0.0107
- AGTGAGACATGGACCGGTTTTCCCGGTAATCCGTATTTGGG (site AGTGAGACTCC) — lower, 0.00984
- CGTTAGACATGGACCGGTTTTCCCGGTAATCCGTATTTGAT (site CGTTAGACTAT) — higher, 1.58
- CTCTACACATGGACCGGTTTTCCCGGTAATCCGTATTTGCC (site CTCTACACTCG) — lower, 0.0134
- ACAGTATCATGGACCGGTTTTCCCGGTAATCCGTATTTGCA (site ACAGTTTCTCG) — lower, 0
- CTGCTAGCATGGACCGGTTTTCCCGGTAATCCGTATTTGCT (site CTGCTAACTAG) — lower, 0
- CGAGCTTCATGGACCGGTTTTCCCGGTAATCCGTATTTGCT (site CGATCATCTAG) — lower, 0
- GTAGACGCATGGACCGGTTTTCCCGGTAATCCGTATTTGCG (site GTAGTCGCTCG) — lower, 0.182
- ACAGTATCATGGACCGGTTTTCCCGGTAATCCGTATTTGCA (site ACGGTATCTTA) — lower, 0.00481
- AAAGATCCATGGACCGGTTTTCCCGGTAATCCGTATTTGGC (site AAAGATCCTGC) — lower, 0
- AGGACTACATGGACCGGTTTTCCCGGTAATCCGTATTTGAC (site ATGACTACTGT) — within 0.2 log units, 1.13
- GGAGCGGCATGGACCGGTTTTCCCGGTAATCCGTATTTGGT (site GGAGCGGCTAC) — lower, 0.387
